Measurements from ChEMBL document CHEMBL2007661, “Compounds: GSK PKIS; Assays: UNC Frye lab” (2012).
Values joined by “and” are separate entries in the source; they are usually repeats but may differ in a detail not shown here. Equal values may be shown once.

Tests used:
Details in all cases: at 1 µM
[1] = molecular target: T1, Inhibitor of nuclear factor kappa-B kinase subunit alpha (Homo sapiens) (UniProt O15111)
T1 sequence (whole entry): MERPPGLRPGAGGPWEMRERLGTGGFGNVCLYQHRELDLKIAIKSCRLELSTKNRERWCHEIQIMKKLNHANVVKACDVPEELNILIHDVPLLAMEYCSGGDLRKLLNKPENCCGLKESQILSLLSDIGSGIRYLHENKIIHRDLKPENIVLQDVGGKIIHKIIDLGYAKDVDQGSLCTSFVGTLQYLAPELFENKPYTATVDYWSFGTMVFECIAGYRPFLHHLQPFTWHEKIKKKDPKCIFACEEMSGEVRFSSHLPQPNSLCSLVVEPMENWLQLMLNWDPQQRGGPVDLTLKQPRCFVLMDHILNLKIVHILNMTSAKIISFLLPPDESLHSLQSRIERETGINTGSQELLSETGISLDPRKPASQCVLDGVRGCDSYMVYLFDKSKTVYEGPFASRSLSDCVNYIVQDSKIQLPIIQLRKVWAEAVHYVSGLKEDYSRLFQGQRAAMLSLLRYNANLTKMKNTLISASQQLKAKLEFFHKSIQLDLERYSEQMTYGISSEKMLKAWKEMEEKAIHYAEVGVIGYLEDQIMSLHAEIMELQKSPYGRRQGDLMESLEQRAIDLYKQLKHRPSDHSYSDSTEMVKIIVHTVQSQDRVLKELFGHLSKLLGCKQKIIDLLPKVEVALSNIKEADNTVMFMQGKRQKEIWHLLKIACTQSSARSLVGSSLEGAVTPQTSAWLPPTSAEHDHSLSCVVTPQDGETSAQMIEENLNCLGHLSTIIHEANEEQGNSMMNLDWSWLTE

[2] = molecular target: T2, Serine/threonine-protein kinase TBK1 (Homo sapiens) (UniProt Q9UHD2)
T2 sequence (whole entry): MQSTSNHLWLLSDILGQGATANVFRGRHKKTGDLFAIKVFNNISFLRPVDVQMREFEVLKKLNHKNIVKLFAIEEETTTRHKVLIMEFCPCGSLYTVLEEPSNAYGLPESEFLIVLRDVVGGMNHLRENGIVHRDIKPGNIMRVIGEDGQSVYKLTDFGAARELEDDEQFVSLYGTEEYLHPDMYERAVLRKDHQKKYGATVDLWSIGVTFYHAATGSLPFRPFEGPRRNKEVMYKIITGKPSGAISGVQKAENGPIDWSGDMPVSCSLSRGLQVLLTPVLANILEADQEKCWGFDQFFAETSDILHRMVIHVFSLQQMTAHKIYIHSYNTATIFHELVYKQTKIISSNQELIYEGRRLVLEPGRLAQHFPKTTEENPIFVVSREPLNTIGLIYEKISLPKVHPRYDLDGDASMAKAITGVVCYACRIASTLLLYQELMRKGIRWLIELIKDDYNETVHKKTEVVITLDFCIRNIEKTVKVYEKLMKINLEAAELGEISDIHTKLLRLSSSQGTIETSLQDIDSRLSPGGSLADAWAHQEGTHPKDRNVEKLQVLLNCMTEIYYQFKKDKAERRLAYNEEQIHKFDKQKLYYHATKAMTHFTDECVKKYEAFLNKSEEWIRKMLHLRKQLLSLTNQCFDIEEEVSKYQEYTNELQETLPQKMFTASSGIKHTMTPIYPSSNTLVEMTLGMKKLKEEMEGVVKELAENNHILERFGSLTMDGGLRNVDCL

[3] = molecular target: T3, Inhibitor of nuclear factor kappa-B kinase subunit beta (Homo sapiens) (UniProt O14920)
T3 sequence (whole entry): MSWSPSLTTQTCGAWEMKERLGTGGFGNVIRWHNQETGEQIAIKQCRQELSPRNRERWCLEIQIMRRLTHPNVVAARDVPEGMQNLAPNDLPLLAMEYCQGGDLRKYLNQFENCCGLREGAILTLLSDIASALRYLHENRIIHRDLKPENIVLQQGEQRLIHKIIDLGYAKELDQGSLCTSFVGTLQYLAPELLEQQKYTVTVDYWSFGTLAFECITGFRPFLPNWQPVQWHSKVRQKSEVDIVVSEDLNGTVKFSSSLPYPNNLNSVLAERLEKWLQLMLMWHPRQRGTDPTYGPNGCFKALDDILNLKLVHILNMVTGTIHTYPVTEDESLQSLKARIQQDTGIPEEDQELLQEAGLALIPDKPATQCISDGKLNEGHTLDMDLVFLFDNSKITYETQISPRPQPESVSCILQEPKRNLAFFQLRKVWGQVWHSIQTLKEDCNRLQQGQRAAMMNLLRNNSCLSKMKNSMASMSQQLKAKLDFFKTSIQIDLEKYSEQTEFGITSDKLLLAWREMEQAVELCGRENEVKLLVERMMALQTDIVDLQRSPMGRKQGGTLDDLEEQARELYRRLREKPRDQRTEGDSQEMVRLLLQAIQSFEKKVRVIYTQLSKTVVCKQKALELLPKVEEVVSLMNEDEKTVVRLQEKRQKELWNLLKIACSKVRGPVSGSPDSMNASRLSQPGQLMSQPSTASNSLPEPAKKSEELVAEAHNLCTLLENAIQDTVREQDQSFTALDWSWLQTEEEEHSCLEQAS

| SMILES | inhibition [1] | inhibition [2] | inhibition [3] |
| --- | --- | --- | --- |
| O=C1NC(=O)C(c2ccccc2Cl)=C1Nc1cccc(O)c1 | 1% | 9% and 7% | -6% and -2% |
| CC1=C(C(=O)Nc2cc(Cl)c3[nH]ncc3c2)C(c2ccc(C(F)(F)F)cc2)CC(=O)N1 (centres undefined) | 2% | -2% and 0% | -7% and 0% |
| CCOc1ccc2c(-c3ccnc(Nc4cccc(C(F)(F)F)c4)n3)cnn2n1 | 1% | 55% and 52% | -3% and -6% |
| CN(C)CCOc1ccc(-c2nc(-c3ccncc3)c(-c3ccc4c(c3)CC/C4=N\O)[nH]2)cc1 | 2% and -6% | -3% and -1% | 0% and -1% |
| Cc1cc(O)cc(C)c1/C=C/c1cncc(C(N)=O)c1 | 4% and 0% | -3% and -6% | -5% and -4% |
| CCn1c(-c2nonc2N)nc2cncc(C(=O)NCCNC)c21 | 30% | 17% and 13% | 1% and -2% |
| COc1ccc2c(-c3ccnc(Nc4cccc(OC(F)(F)F)c4)n3)cnn2n1 | 2% and 1% | 49% | -3% and -2% |
| CCNC(=O)O[C@H]1CN[C@H](C#Cc2cc3ncnc(Nc4ccc(OCc5cccc(F)c5)c(Cl)c4)c3s2)C1 | 4% and 5% | 0% and 3% | -5% and -3% |
| N#Cc1ccc2c(-c3ccnc(NC4CC4)n3)c(-c3ccc(F)cc3)nn2c1 | 1% and -2% | -1% | 4% and -1% |
| Fc1ccc(-c2cc(-c3c[nH]nc3-c3ccccn3)ccn2)cc1 | 6% | -4% and -3% | -4% and -2% |
| COc1ccc2cc(-c3c(-c4ccncc4)nc(-c4ccc(S(C)(=O)=O)cc4C)n3C)ccc2c1 | 5% | -4% and -1% | -2% |
| Cc1ccc2c(-c3ccnc(Nc4ccc5c(c4)OCCO5)n3)c(-c3ccc(C(F)(F)F)cc3)nn2n1 | 9% and 1% | -5% and 1% | -1% and -5% |
| COc1cc(N2CCN(C(C)C)CC2)ccc1Nc1nc(Nc2cccc(F)c2C(=O)O)c2cc[nH]c2n1 | 2% and 3% | -3% and 0% | -4% and -3% |
| CCn1c(-c2nonc2N)nc2c(C#CC(C)(C)O)nc(OC[C@H](N)c3ccccc3)cc21 | 10% and 11% | 8% and 11% | -4% and 1% |
| COc1ccc(-c2cc3c(N)ncnc3o2)cc1 | 2% and 3% | 1% and 2% | -5% and 1% |
| CC(=O)NCc1cccc(C#Cc2cncnc2Nc2ccc(OCc3cccc(F)c3)c(Cl)c2)c1 | 1% | -6% and -7% | -3% and -4% |
| C/C(Nc1ccc(S(N)(=O)=O)cc1)=C1/C(=O)Nc2ccccc21 | 2% and 1% | 11% and 14% | -3% and -2% |
| CN(C)CCOc1ccc(-c2cc(-c3ccc4c(c3)CCC4=NO)c(-c3ccncc3)o2)cc1 | 0% | 5% and 6% | -1% and -3% |
| Cc1ccc(C(=O)NC2CC2)cc1-c1ccc2[nH]ncc2c1 | 0% | 0% and 2% | 0% |
| CCCNc1cccc(-n2ncc3c(N/N=C/c4ccncc4)ncnc32)c1 | 4% | 18% | -3% and -2% |
| CCn1c(-c2nonc2N)nc2c(C#CC(C)(C)O)nc(O[C@@H](CN)c3ccccc3)cc21 | 17% and 19% | 85% and 87% | -3% and -4% |
| N#Cc1ccc(Oc2nccc(-c3c(-c4ccc(F)cc4)ncn3C3CCNCC3)n2)cc1 | -2% and -1% | 8% and 3% | -2% and -1% |

| SMILES | inhibition [1] | inhibition [2] | inhibition [3] |
| --- | --- | --- | --- |
| COc1cc2ncn(-c3cc(OCCc4ccccc4)c(C(N)=O)s3)c2cc1OC | -2% | 65% and 61% | 8% and 3% |
| CN(C)c1ccc2c(c1)/C(=C/Nc1ccc(S(N)(=O)=O)cc1)C(=O)N2 | 0% and -1% | 76% and 74% | -3% |
| COc1ccc(-c2nn3ncccc3c2-c2ccnc(Nc3ccc(Cl)c(C(F)(F)F)c3)n2)cc1 | -2% and 3% | -6% and -3% | -4% and -5% |
| CCN(CC)S(=O)(=O)c1ccc(OC)c(Nc2ncc(-c3ccccc3)o2)c1 | 1% | -2% and 2% | -1% and 2% |
| Cc1ccc(NC(=O)c2ccoc2)cc1-c1ccc(C(=O)NCC2CC2)cc1 | 5% and 4% | 1% and 2% | -5% |
| Fc1ccc(-c2ncn(C3CCNCC3)c2-c2ccnc(Oc3ccc(F)c(F)c3)n2)cc1 | 18% and 0% | 2% and 0% | -3% |
| CCc1nn2ncccc2c1-c1ccnc(NC2CC2)n1 | 0% | 0% and -2% | -3% and -4% |
| C[C@@H](Oc1cc(-n2cnc3ccc(OC[C@@H](O)CO)cc32)sc1C(N)=O)c1ccccc1Cl | -3% and -4% | 4% and 1% | 1% and 4% |
| CNC(=O)Oc1cc(C)c(/C=C/c2cncc(C(=O)NC)c2)c(C)c1 | -3% and 5% | -1% | 1% and -3% |
| COc1ccc(CNC(=O)c2ccc(-c3cc(-c4nnc(C)o4)ccc3C)cc2)cc1 | 3% and 7% | -6% and -5% | -2% and -3% |
| COc1cc2ncn(-c3cc(O[C@H](C)c4ccccc4Cl)c(C(N)=O)s3)c2cc1OC | -2% and 4% | 2% and 0% | 0% and -8% |
| N#Cc1c(NC(=O)c2ccccc2F)sc2c1CCCC2 | -3% | 0% and 2% | 1% and 0% |
| COc1cccc(-n2ncc3c(N/N=C/c4ccc(C(=O)NCCN(C)C)cc4)ncnc32)c1 | 7% and 19% | 28% and 31% | -5% and -6% |
| COc1ccccc1Nc1ncc(-c2ccccc2)o1 | -1% and 3% | 10% and 5% | 3% and 0% |
| O=C1NC(=O)C(c2cccc(Cl)c2)=C1Nc1ccc(O)c(Cl)c1 | 3% and 4% | 58% and 55% | -6% and -9% |
| c1ccc(-c2n[nH]cc2-c2ccnc(-c3ccc(OCCN4CCOCC4)cc3)c2)nc1 | 5% and 4% | -2% and -1% | -4% and -10% |
| COc1cccc(-n2ncc3c(N/N=C/c4ccncc4)ncnc32)c1 | 1% and 4% | 13% and 14% | -2% |
| Cc1cc(-c2ccccn2)cc(C)c1/C=C/c1cncc(-c2nn[nH]n2)c1 | 3% and 1% | -2% and -5% | -5% and -2% |
| O=C(Nc1n[nH]c2nc(-c3ccc(O)cc3)c(Br)cc12)C1CC1 | 2% and 14% | 37% and 33% | -4% and -2% |
| Cc1nnc(-c2ccc(C)c(-c3ccc(C(=O)NCc4ccc(Cl)cc4)cc3)c2)o1 | 2% and 4% | 3% and 4% | -2% and 0% |
| CS(=O)(=O)CCNCc1coc(-c2ccc3ncnc(Nc4ccc(OCc5ccccc5)cc4)c3c2)c1 | 2% and -8% | -1% | 0% and -1% |
